Data on two compounds can be found in patent US20260240877A1, “INOSITOL PHOSPHATE COMPOUNDS FOR USE IN INCREASING TISSULAR PERFUSION” (SANIFIT THERAPEUTICS, S.A., priority 2019, published 2026).

The structures appear in SMILES notation.

Data set [1] concerns Sprague Dawley (SD) rats with vitamin D3-induced limb ischemia. Briefly: Limb blood perfusion by laser doppler perfusion imaging, prevention of vitamin D3-induced limb ischemia. In kind it is in vivo, rat. On the procedure:
Position limb blood perfusion and ischemia status (i.e., blood perfusion including, perfusion unit, perfusion difference and perfusion ratio) is evaluated by laser doppler perfusion imaging using a PeriCam PSI NR imager (Perimed AB, Järfä11a, SE). Subjects are anesthetized using 3% isoflurane delivered in 100% oxygen at a flow rate at 1 L/min before measuring. The perfusion difference and perfusion ratio are calculated by comparing the baseline and any indicated interim or final readings for each group. […]
Limb ischemia status was evaluated at days DO (baseline), D6 and D12 in all rats by laser doppler perfusion imaging. The perfusion difference and perfusion ratio were calculated by comparing the DO baseline and either the D6 and D12 readings for each group. […]
Limb ischemia status was evaluated during treatment and after treatment was interrupted (i.e., DO, D6, D12, D18) in all rats by laser doppler perfusion imaging. The perfusion difference and perfusion ratio were calculated by comparing the baseline and either of the D6, D12, and D18 readings for each group. […]
Limb ischemia status was evaluated during the treatment period (i.e., DO, D6 and D12) by laser doppler perfusion imaging in all rats. The perfusion difference and perfusion ratio were calculated by comparing the baseline and either of the D6 and D12 readings for each group.

Data set [2] shares this test system. Briefly: Walking ability by treadmill running test, treatment after inception of limb ischemia. The conditions noted are these: Example 3; 40 mg/kg/day, treatment started 5 days after ischemia induction, D11. The class given is in vivo, rat. On the procedure:
(§1) Quantification of walking ability (maximal waling time (MWT) and maximal walking distance (MWD)) are measured by a forced incremental treadmill running test. A two-lane rodent treadmill (LE8709TS; PanLab/Harvard Apparatus, Holliston, MA, US) is employed. The treadmill is maintained at a 15% inclination running at a speed of 15 m/min (25 cm/sec) during the first 5 min, then at 33 cm/see during the following 5 min, and finally, at a speed of 40 cm/see for a maximum of 30 additional minutes.
Maximal walking time (MWT) and maximal walking distance (MWD) were assessed in all groups at DO and in groups 1, 3a, 3b, 4, and 5 at D6 and D11 by the treadmill running test (8 to 12 animals per group and time point). Subjects were acclimatized to the treadmill for two days before conducting the test. On the first day, subjects were exercised for 5 to 10 minutes with the treadmill speed ranging progressively from 15 m/min to 24 m/min. […]
Limb function (MWT and MWD) was assessed in groups 1, 3a, 3b, and 4 using the treadmill running test 15 min after the corresponding daily administration. Limb function in groups 5 was assessed from 3 to 4 hours after treatment.
(§2) The subjects were kept running for 40 minutes or until exhausted (i.e., they remain on the shock grid for five continuous seconds). MWD and MWT was then calculated for each animal.

Data set [3] has the same test system. Briefly: Walking ability (MWD, MWT) by treadmill running test, prevention of vitamin D3-induced limb ischemia. In kind it is in vivo, rat. On the procedure: as §1
Subjects are exercised in the treadmill for acclimatization according to a set protocol prior to testing.
Subjects are kept running for up to 40 min or until exhausted (i.e., they remain on the shock grid for five continuous seconds) during the test. MWD and MWT are then calculated for each animal.
Maximal waling time (MWT) and maximal walking distance (MWD) were assessed in groups 1~4 by the treadmill running test (8 to10 animals per group and time point) in DO, D5, D10, and D17.
Subjects were acclimatized to the treadmill for two days before conducting the test. On the first day, subjects were exercised for 5 to 10 minutes with the treadmill speed ranging progressively from 15 m/min to 24 m/min. On the second day, the subjects were exercised initially at a speed of 15 m/min for the 5 minutes. Then, they were exercised at 19.8 m/min (33 cm/sec) for 5 additional minutes. Finally, the subjects were exercised at 24 m/min (40 cm/sec) for a maximum 30 additional minutes. Preoperative walking time and distance recordings were obtained.
Limb function (MWT and MWD) was assessed in groups 1, 2, and 3 using the treadmill running test 15 min after the corresponding daily administration. Limb function in groups 4 was assessed from 3 to 4 hours after treatment.
as §2
Maximal walking time (MWT) and maximal walking distance (MWD) were assessed in groups 1-8 by the treadmill running test (8 to12 animals per group and time point) in DO, D5 and D10.
Limb function (MWT and MWD) was assessed in groups 1, 2, 3, 4, 5, 6 and 7 using the treadmill running test 15 min after the corresponding daily administration. Limb function in group 8 was assessed from 3 to 4 hours after treatment.

Data set [4] has the same test system. Briefly: Limb blood perfusion by laser doppler perfusion imaging, treatment after inception of limb ischemia. In kind it is in vivo, rat. The conditions noted are these: Example 3; 40 mg/kg daily D5 to D13.
Method: Position limb blood perfusion and ischemia status (i.e., blood perfusion including, perfusion unit, perfusion difference and perfusion ratio) is evaluated by laser doppler perfusion imaging using a PeriCam PSI NR imager (Perimed AB, Järfä11a, SE). Subjects are anesthetized using 3% isoflurane delivered in 100% oxygen at a flow rate at 1 L/min before measuring. The perfusion difference and perfusion ratio are calculated by comparing the baseline and any indicated interim or final readings for each group. […] Limb ischemia was induced in the subjects of groups 2-5 by subcutaneous administration of 120,000 IU/kg vitamin D3 (cholecalciferol, Duphafral D3 1000; Zoetis Inc., Parsippany, NJ, US) in physiological saline solution (2 mL/kg) every day during D1 to D3. The group 1 subjects were administered physiological saline solution (2 mL/kg) subcutaneously every day from D1 to D3 with no vitamin D3. Subjects in groups 3a placebo were administered 2 mL/kg of physiological saline solution daily from D5 to D13 via subcutaneous route. Subjects in group 3b placebo were administered orally 5 mL/kg of a 5% CMC sodium salt in water solution daily from D5 to D13. […] The perfusion difference and perfusion ratio were calculated by comparing the baseline and either D5 and D13 readings for each group.
The conditions of data set [5]: in vivo; cited from earlier work.
Data set [6] concerns adenine-induced uremic Sprague Dawley (SD) rats. Description: Heart and aorta calcification (calcium content by ICP-OES), adenine-induced uremic rat model. The class given is in vivo. The conditions noted are these: Example 6; SNF472 s.c. dosing or Alzet pump; cilostazol 45 mg/kg oral; D21. As to the method:
Uremia and limb ischemia were induced in groups 2-6 by a daily dose of adenine (500 mg/kg, suspended in 1% carboxymethyl cellulose, administered orally) for the first 10 days, and then with a dose of α-calcidol (100 ng/kg in olive oil, administered orally) three times per week from D11 to D19, to accelerate and homogenize the development of cardiovascular calcification and ischemia. Subjects were anesthetized and their blood was obtained in D21. The subjects were sacrificed after exsanguination. Then, their necropsies were performed, and their heart and aorta arteries were collected. The tissues were lyophilized for 24 h and weighed. The lyophilized tissues were then digested using a 1:1 HNO3: HClO4 mixture in a dry bath incubator for 2-4 h at 180° C. The digested tissues were subsequently diluted using ultra-pure Milli-Q water (MilliporeSigma (Merck KGaA), Burlington, MA, US) to a final volume of 10 mL. The calcium content in the tissue samples was quantified via ICP-OES.

For data set [7], the system named is Sprague Dawley (SD) rats treated with vitamin D3. Briefly: Tissue calcification (calcium content by ICP-OES), VitD rat model, prevention. The class given is in vivo.
From the text: Subjects are anesthetized by isoflurane inhalation. Blood is obtained by exsanguination through cardiac puncture. The subjects are then sacrificed and their tissues (e.g., right and left femoral arteries, aorta) are collected. The blood and tissues are processed and analyzed for determining their calcium contents. Calcium content in tissue sample is quantified via inductively coupled plasma optical emission spectrometry (ICP-OES) using an Optima 7300 DV ICP-OES System spectrometer (PerkinElmer, Inc., Waltham, MA, US) according to the manufacturer's instructions. […] The subjects from groups 1, 2, 3 and 5 were sacrificed after exsanguination. Then, their necropsies were performed, and their aortas were collected. The tissues were lyophilized for 24 h and weighed. The lyophilized tissues were then digested using a 1:1 HNO3: HClO4 mixture in a dry bath incubator for 2-4 h at 180° C. The digested tissues were subsequently diluted using ultra-pure Milli-Q water (MilliporeSigma (Merck KGaA), Burlington, MA, US) to a final volume of 10 mL. The calcium content in the aorta sample was quantified via ICP-OES. Subjects were anesthetized and their blood was obtained in D24. The subjects were sacrificed after exsanguination. Then, their necropsies were performed, and their aortas were collected. The tissues were lyophilized for 24 h and weighed. The lyophilized tissues were then digested using a 1:1 HNO3: HClO4 mixture in a dry bath incubator for 2-4 h at 180° C. The digested tissues were subsequently diluted using ultra-pure Milli-Q water (MilliporeSigma (Merck KGaA), Burlington, MA, US) to a final volume of 10 mL. The calcium content in the tissue samples was quantified via ICP-OES. Subjects were anesthetized and their blood was obtained in D12. The subjects were sacrificed after exsanguination. Then, their necropsies were performed, and their heart and aorta arteries were collected. The tissues were lyophilized for 24 h and weighed. […] The calcium content in the tissue samples was quantified via ICP-OES.
The test system of data set [8] is adenine-induced uremic Sprague Dawley (SD) rats. Briefly: Limb blood perfusion by laser doppler perfusion imaging, adenine-induced uremic rat model. The class given is in vivo. The conditions noted are these: Example 6; SNF472 30, 45 mg/kg s.c. or 400 mg/4 weeks Alzet pump; cilostazol 45 mg/kg oral; D1 to D21. As to the method:
Position limb blood perfusion and ischemia status (i.e., blood perfusion including, perfusion unit, perfusion difference and perfusion ratio) is evaluated by laser doppler perfusion imaging using a PeriCam PSI NR imager (Perimed AB, Järfä11a, SE). Subjects are anesthetized using 3% isoflurane delivered in 100% oxygen at a flow rate at 1 L/min before measuring. The perfusion difference and perfusion ratio are calculated by comparing the baseline and any indicated interim or final readings for each group.
Uremia and limb ischemia were induced in groups 2-6 by a daily dose of adenine (500 mg/kg, suspended in 1% carboxymethyl cellulose, administered orally) for the first 10 days, and then with a dose of α-calcidol (100 ng/kg in olive oil, administered orally) three times per week from D11 to D19, to accelerate and homogenize the development of cardiovascular calcification and ischemia.
Animals in group 6 were administered orally 45 mg/kg cilostazol (C20H27N5O2, free base 369.46 g/mol; lot no. LRAB9590, Sigma-Aldrich Corp., St. Louis, MO, US) in a 5% CMC sodium salt in water solution (5 mL/kg) daily from D1 to D21.
Limb ischemia status was evaluated during treatment (i.e., DO, D10 and D17 and D21) in all rats by laser doppler perfusion imaging. The perfusion difference and perfusion ratio were calculated by comparing the baseline and of the D10, D17 and D21 readings for each group.

Data set [9] deals with people with symptomatic PAD. The conditions noted are these: recent studies in PAD patients; cited from earlier work.

`O=C1CCc2cc(OCCCCc3nnnn3C3CCCCC3)ccc2N1` [Cilostazol, 6-[4-(1-cyclohexyl-1H-tetrazol-5yl)butoxy]-3,4-dihydro-2 (1H)-quinolinone]: the “rat limb ischemia (blood perfusion)” value in data set [1] (Example 2, 20 mg/kg daily D1 to D12 (SNF472 s.c., cilostazol oral)) is given as “not effective”; in data set [1] (Example 5, SNF472 1, 7.5, 15, 30, 45 mg/kg s.c., cilostazol 45 mg/kg oral, daily D1 to D12), “not effective”. The “improvement of walking ability (MWD) compared to vehicle” value in data set [2] was “not effective”. Moreover, the “improvement of Maximal Walking Distance (MWD) compared to vehicle” value in data set [3] (Example 2, 20 mg/kg daily, D10) was “+54%”. Besides, the “improvement of Maximal Walking Time (MWT) compared to vehicle” value in data set [3] (Example 2, 20 mg/kg daily, D10) is on record as “+46%”. The “effect on walking ability after interrupting treatment” value in [3] (Example 2, D17, 5 days after interrupting treatment) is given as “lost its beneficial effects”. Further, the “walking ability compared to vehicle” value in data set [3] (Example 5, SNF472 1-45 mg/kg s.c., cilostazol 45 mg/kg oral, daily D1 to D12) is reported as “improved walking ability”. Besides, the “limbs blood perfusion in D13 compared to D5 before treatment” value in [4] is recorded as “No improvement or ischemia rescue”. The side effects result in data set [5] was “headache, diarrhea, palpitations, and lightheadedness”. In data set [6], the “heart and aorta arteries calcification in uremic rats” value is reported as “not active against calcification”. Moreover, the “inhibition of aorta calcification compared to placebo” value in data set [7] (Example 1, 20 mg/kg daily, D12) is “not active against calcification”; in data set [7] (Example 2, 20 mg/kg daily D1 to D12, D24 (12 days after interruption of treatment)) it was “not active against calcification”. Further, the “heart and aorta arteries calcification” value in data set [7] (Example 5, SNF472 1-45 mg/kg s.c., cilostazol 45 mg/kg oral, D12) is listed as “not active against calcification”. For the same compound, the “rat limb ischemia in uremic rats (blood perfusion)” value in [8] is “not effective”.

`CC(=O)CCCCn1c(=O)c2c(ncn2C)n(C)c1=O` [pentoxifylline]: the “intermittent claudication symptoms or maximal walking distance versus placebo” value in data set [9] is “not significantly improved”.
